Columns and labels:
Type in all cases: in vivo
[1] = system: Venturia inaequalis (VENTIN); assay: One day protectant (1 DP) test, Apple Scab; conditions: 0.1 percent Spraymate X77 + 0.1 percent ammonium sulfate
[2] = system: Venturia inaequalis (VENTIN); assay: Curative test, Apple Scab (compound added 2 days after inoculation); conditions: curative at 200 ppm
[3] = system: Puccinia recondita f. sp. tritici (PUCCRT); assay: Drop Line Test on wheat leaf, Brown Rust of Wheat; conditions: Drop Line Test 0.5 μg/leaf, 2 microliter drop
Method: Wheat (cultivar Monon) was grown in plastic pots (6.2 cm×8.75 cm) containing 50 percent mineral soil, 50 percent Metro-Mix 360 (W.R Grace and Co.) until the seedlings were 10-20 cm tall. These plants were then sprayed to runoff with the test compound at a rate of 200 ppm. After 24 hours the test plants were inoculated by spraying with an aqueous spore suspension of Puccinia recondita f. sp. tritici (PUCCRT). The plants were then transferred to a dew chamber for 24 hours, then to the greenhouse until disease developed on the untreated control plants. In Example 3, a Drop Line Test was used, wherein instead of spraying the plant to runoff, a 2 microliter drop was placed on the wheat leaf and observed for disease control.

SMILES	VENTIN percent control of plant disease ([1]; 50 ppm and 100 ppm)	VENTIN percent control of plant disease ([1]; rate 200 ppm)	VENTIN percent control of plant disease, curative [2]	PUCCRT percent control of plant disease, Drop Line Test [3]
NC[C@@H]1NC(=O)C(C(=O)CC(NC(=O)[C@@H](N)CO)(C(=O)O)C(=O)O)=C1O [Compound I, {[(2S)-2-amino-3-hydroxypropanoyl]amino}{2-[(5S)-5-(aminomethyl)-4-hydroxy-2-oxo-2,5-dihydro-1H-pyrrol-3-yl]-2-oxoethyl}malonic acid]	++ (++ = 75-100 percent control of plant disease)	+ (+ = 30-74 percent control of plant disease)	++^α (++ = 75-100 percent control of plant disease)	
C[C@H](N)C(=O)NC(CC(=O)O)(CC(=O)C1=C(O)[C@H](CN)NC1=O)C(=O)O (stereo partly shown) [Compound III]				+ (+ = 30-74 percent control of plant disease)

From patent US7887827B2, “Use of malonomicin and analogs in fungicidal applications” (Dow AgroSciences LLC, priority 2006, dated 2011)
